Laboratory results as given in ChEMBL document CHEMBL1250518, “Nonsteroidal dissociated glucocorticoid agonists containing azaindoles as steroid A-ring mimetics” (J Med Chem, 2010).

Columns and labels:
Glucocorticoid receptor [1] = target: T1, Glucocorticoid receptor (Homo sapiens, UniProt P04150); assay: Transrepression activity at glucocorticoid receptor in HFF assessed as inhibition of IL-1-induced IL-6 production after 18 to 24 hrs by ELISA; type: cell-based
T1 sequence (P04150 whole entry): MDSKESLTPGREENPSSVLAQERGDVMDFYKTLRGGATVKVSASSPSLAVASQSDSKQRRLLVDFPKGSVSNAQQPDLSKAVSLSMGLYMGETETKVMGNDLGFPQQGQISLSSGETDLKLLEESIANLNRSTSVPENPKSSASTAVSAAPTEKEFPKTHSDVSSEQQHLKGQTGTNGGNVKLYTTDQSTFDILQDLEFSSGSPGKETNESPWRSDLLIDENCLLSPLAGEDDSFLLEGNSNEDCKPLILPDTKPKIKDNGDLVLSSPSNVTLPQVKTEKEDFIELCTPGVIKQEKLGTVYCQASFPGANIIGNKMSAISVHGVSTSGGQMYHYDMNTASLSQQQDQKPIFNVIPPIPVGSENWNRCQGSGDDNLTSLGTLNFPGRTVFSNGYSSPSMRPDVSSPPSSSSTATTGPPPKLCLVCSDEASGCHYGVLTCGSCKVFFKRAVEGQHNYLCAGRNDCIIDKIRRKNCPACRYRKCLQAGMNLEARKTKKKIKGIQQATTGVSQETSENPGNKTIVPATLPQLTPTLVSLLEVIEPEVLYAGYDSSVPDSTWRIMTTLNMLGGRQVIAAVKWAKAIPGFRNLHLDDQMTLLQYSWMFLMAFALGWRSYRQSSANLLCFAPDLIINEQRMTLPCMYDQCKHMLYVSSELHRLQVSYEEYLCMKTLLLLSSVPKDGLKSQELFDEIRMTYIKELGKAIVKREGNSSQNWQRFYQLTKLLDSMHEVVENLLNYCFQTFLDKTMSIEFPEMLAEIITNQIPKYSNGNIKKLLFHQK

Progesterone receptor = target: T2, Progesterone receptor (Homo sapiens, UniProt P06401); assay: Binding affinity to progesterone receptor expressed in baculovirus-infected insect cells using tetramethylrhodamine labeled RU-486 by fluorescence polarization microplate assay
T2 sequence (P06401 whole entry): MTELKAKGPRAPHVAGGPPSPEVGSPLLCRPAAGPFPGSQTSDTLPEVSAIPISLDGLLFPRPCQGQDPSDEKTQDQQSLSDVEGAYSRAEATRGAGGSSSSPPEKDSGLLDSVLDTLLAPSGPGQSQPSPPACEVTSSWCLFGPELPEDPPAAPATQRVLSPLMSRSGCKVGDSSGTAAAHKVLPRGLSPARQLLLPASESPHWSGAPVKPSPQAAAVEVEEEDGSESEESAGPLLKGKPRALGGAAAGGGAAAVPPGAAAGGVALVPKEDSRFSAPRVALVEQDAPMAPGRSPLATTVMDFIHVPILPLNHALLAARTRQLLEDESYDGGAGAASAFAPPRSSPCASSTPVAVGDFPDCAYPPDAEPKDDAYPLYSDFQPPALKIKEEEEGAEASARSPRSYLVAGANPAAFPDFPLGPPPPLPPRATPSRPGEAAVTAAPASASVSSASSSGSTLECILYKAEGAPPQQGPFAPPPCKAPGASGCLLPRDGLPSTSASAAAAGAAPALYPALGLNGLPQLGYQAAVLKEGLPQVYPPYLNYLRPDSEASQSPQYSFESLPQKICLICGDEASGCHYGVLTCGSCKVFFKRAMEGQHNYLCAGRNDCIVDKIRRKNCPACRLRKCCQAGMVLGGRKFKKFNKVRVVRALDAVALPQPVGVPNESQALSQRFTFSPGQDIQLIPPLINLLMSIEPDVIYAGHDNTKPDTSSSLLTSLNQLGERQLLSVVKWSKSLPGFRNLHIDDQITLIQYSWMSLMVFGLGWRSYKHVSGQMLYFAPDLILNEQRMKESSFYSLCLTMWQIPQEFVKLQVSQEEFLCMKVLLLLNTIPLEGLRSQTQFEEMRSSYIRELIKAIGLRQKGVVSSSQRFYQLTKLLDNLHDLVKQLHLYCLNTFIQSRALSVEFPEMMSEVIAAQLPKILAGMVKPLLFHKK

Glucocorticoid receptor [2] = target: T1, Glucocorticoid receptor; assay: Transactivation activity at glucocorticoid receptor in HFF assessed as induction of aromatase activity after 18 to 24 hrs by ELISA; type: cell-based
Glucocorticoid receptor [3] = target: T1, Glucocorticoid receptor; assay: Transactivation activity at glucocorticoid receptor in human HeLa cells transfected with luciferase gene linked to MMTV promoter by luciferase assay; type: cell-based
Glucocorticoid receptor [4] = target: T1, Glucocorticoid receptor; assay: Binding affinity to glucocorticoid receptor expressed in baculovirus-infected insect cells using tetramethylrhodamine labeled Dexamethasone by fluorescence polarization microplate assay
[5] = target: T3, Mineralocorticoid receptor (Homo sapiens, UniProt P08235); assay: Binding affinity to mineralocorticoid receptor expressed in baculovirus-infected insect cells using tetramethylrhodamine labeled Dexamethasone by fluorescence polarization microplate assay
T3 sequence (P08235 whole entry): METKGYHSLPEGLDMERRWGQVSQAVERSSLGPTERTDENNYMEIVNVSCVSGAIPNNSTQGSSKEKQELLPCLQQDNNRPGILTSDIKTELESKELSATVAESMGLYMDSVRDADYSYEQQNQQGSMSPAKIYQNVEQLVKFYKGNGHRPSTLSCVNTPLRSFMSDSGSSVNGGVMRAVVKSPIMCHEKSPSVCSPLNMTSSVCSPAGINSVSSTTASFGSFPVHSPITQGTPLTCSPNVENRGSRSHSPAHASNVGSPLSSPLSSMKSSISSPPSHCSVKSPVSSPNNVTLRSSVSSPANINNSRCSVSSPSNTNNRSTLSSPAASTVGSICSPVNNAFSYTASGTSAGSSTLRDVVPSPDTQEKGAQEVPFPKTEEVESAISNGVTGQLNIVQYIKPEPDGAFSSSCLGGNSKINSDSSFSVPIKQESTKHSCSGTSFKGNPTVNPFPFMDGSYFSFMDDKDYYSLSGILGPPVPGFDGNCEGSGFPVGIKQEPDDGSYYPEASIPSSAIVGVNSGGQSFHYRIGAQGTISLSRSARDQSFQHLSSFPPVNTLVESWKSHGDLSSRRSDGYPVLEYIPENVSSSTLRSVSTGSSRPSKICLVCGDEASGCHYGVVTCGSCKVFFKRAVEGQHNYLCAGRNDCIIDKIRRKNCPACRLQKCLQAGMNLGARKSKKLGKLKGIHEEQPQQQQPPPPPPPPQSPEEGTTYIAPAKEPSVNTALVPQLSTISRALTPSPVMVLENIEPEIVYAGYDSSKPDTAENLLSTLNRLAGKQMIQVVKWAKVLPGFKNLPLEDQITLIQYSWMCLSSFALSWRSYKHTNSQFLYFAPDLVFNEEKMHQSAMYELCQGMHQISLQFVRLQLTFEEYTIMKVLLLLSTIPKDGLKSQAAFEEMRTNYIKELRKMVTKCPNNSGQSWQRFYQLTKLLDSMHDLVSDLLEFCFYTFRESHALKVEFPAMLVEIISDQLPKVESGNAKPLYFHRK

SMILES	IC50 (Glucocorticoid receptor [1])	IC50 (Progesterone receptor)	EC50 (Glucocorticoid receptor [2])	IC50 (Glucocorticoid receptor [3])	IC50 (Glucocorticoid receptor [4])	IC50 [5]
COc1ccc(-c2cccnc2)cc1C(C)(C)CC(O)(Cc1cc2ccncc2[nH]1)C(F)(F)F (stereo unspecified)	0.03 µM	> 2 µM	> 2 µM	–	0.008 µM	0.39 µM
COc1ccc(-c2cncnc2)cc1C(C)(C)CC(O)(Cc1cc2ccncc2[nH]1)C(F)(F)F (stereo unspecified)	0.05 µM	> 2 µM	–	–	0.027 µM	> 2 µM
CC(C)(C[C@@](O)(Cc1cc2cnccc2[nH]1)C(F)(F)F)c1cc(F)ccc1O	0.003 µM	1.9 µM	0.045 µM	0.056 µM	0.0047 µM	0.22 µM
COc1ccc(F)cc1C(C)(C)C[C@@](O)(Cc1cc2cnccc2[nH]1)C(F)(F)F	0.002 µM	0.6 µM	0.035 µM	0.022 µM	0.0014 µM	0.058 µM
COc1ccc(F)cc1C(C)(C)CC(O)(Cc1cc2ccncc2o1)C(F)(F)F (stereo unspecified)	> 2 µM	> 2 µM	–	–	0.022 µM	1.05 µM
CC(C)(CC(O)(Cc1cc2ccncc2[nH]1)C(F)(F)F)c1cc(-c2cccnc2)ccc1O (stereo unspecified)	0.023 µM	> 2 µM	–	> 2 µM	0.0066 µM	0.23 µM
COc1ccc(F)cc1C(C)(C)CC(O)(Cc1cc2cnccc2[nH]1)C(F)(F)F (stereo unspecified)	0.0082 µM	> 2 µM	–	–	0.0073 µM	0.32 µM
COc1ccc(F)cc1C(C)(C)CC(O)(Cc1cc2ncccc2[nH]1)C(F)(F)F (stereo unspecified)	0.12 µM	> 2 µM	–	–	0.023 µM	> 2 µM
CC(C)(CC(O)(Cc1cc2ccncc2[nH]1)C(F)(F)F)c1ccccc1 (stereo unspecified)	0.031 µM	0.19 µM	> 2 µM	> 2 µM	0.0093 µM	0.81 µM
COc1ccc(F)cc1C(C)(C)CC(O)(Cc1cc2cccnc2[nH]1)C(F)(F)F (stereo unspecified)	> 2 µM	> 2 µM	–	–	0.021 µM	0.91 µM
COc1ccc(F)cc1C(C)(C)CC(O)(Cc1cc2ccccn2n1)C(F)(F)F (stereo unspecified)	> 2 µM	> 2 µM	–	–	0.69 µM	> 2 µM
COc1ccc(F)cc1C(C)(C)CC(O)(Cn1ccc2ncccc21)C(F)(F)F (stereo unspecified)	0.0028 µM	0.2 µM	–	–	0.002 µM	0.048 µM
COc1ccc(F)cc1C(C)(C)CC(O)(Cc1cc2ccccc2[nH]1)C(F)(F)F (stereo unspecified)	0.0066 µM	0.25 µM	–	–	0.021 µM	0.38 µM
CC(C)(CC(O)(Cc1cc2ccncc2[nH]1)C(F)(F)F)c1cc(F)cc2c1OCC2 (stereo unspecified)	0.0093 µM	0.45 µM	–	> 2 µM	0.0023 µM	0.28 µM
COc1ccc(F)cc1C(C)(C)C[C@](O)(Cc1cc2ccncc2[nH]1)C(F)(F)F	0.43 µM	> 2 µM	–	–	1.7 µM	> 2 µM
C[C@@H]1C[C@H]2[C@@H]3CCC4=CC(=O)C=C[C@]4(C)[C@@]3(F)[C@@H](O)C[C@]2(C)[C@@]1(O)C(=O)CO [DEXAMETHASONE]	–	> 2 µM	–	–	–	–
COc1ccc(-c2ccccc2)cc1C(C)(C)CC(O)(Cc1cc2ccncc2[nH]1)C(F)(F)F (stereo unspecified)	0.04 µM	1.2 µM	0.069 µM	–	0.012 µM	0.48 µM
CC(C)(CC(O)(Cc1cc2ccncc2[nH]1)C(F)(F)F)c1cc(-c2cncnc2)ccc1O (stereo unspecified)	0.021 µM	> 2 µM	–	–	0.019 µM	1.7 µM

Results, then the molecule that gave them:

IC50 (Glucocorticoid receptor [1])	IC50 (Progesterone receptor)	EC50 (Glucocorticoid receptor [2])	IC50 (Glucocorticoid receptor [3])	IC50 (Glucocorticoid receptor [4])	IC50 [5]	SMILES
0.015 µM	1.3 µM	0.045 µM	0.047 µM	0.011 µM	0.16 µM	CC(C)(CC(O)(Cc1cc2ccncc2[nH]1)C(F)(F)F)c1cc(-c2ccccc2)ccc1O (stereo unspecified)
0.015 µM	0.13 µM	0.03 µM	> 2 µM	0.0045 µM	0.78 µM	CC(C)(CC(O)(Cc1cc2ccncc2[nH]1)C(F)(F)F)c1cccc2c1OCC2 (stereo unspecified)
0.0098 µM	> 2 µM	–	–	0.0044 µM	0.58 µM	COc1ccc(F)cc1C(C)(C)CC(O)(Cc1cc2ccncc2[nH]1)C(F)(F)F (stereo unspecified)
0.035 µM	1.3 µM	–	–	0.0071 µM	0.22 µM	COc1ccc(F)cc1C(C)(C)CC(O)(Cc1cc2ccncc2s1)C(F)(F)F (stereo unspecified)
–	> 2 µM	–	–	1.4 µM	> 2 µM	COc1ccc(F)cc1C(C)(C)CC(O)(Cn1ccc2ccncc21)C(F)(F)F (stereo unspecified)
0.017 µM	1.21 µM	0.12 µM	> 2 µM	0.007 µM	0.54 µM	CC(C)(CC(O)(Cc1cc2ccncc2[nH]1)C(F)(F)F)c1cc(Cl)cc2c1OCC2 (stereo unspecified)
–	> 2 µM	–	–	0.86 µM	> 2 µM	COc1ccc(F)cc1C(C)(C)CC(O)(Cc1cc2cc[n+]([O-])cc2[nH]1)C(F)(F)F (stereo unspecified)
0.099 µM	0.008 µM	> 2 µM	–	0.023 µM	> 2 µM	CC(C)(CC(O)(Cc1cc2ccncc2[nH]1)C(F)(F)F)c1cccc(F)c1 (stereo unspecified)
